Here are results for 7 compounds from patent publication US20070155752A1, “2-Amino-o4-substituted pteridines and their use as inactivators of o6-alkylguanine-dna alkyltransferase” (Government of the United States of America,, priority 2004, published 2007).

In one test the test system is HT29 cells. As to conditions: for Enhancement of HT29 cell killing by BCNU / ED90, concentration required to kill 90% of HT29 cells with BCNU: BCNU 40 μM.
The next test has as its system A549 lung tumor cells. The experiment in a line: Colony-forming cytotoxicity assay with BCNU, A549 cells. The test is classed as cell-based. As to conditions: 40 μM BCNU, 2 hr exposure in folate free medium. Here is the method:
(§1) 2-Amino-O^4-benzyl-6-carboxypteridine (5) is not effective probably because the negative charge on the molecule at physiological pH prevents its easy entry into cells. However, even though O^4-benzylfolic acid is also anionic at physiological pH, it does enhance cell killing by BCNU. Furthermore, its effectiveness as an adjuvant is a function of the cells' ability to express the α-form of the folic acid receptor. […] KB cell killing by 80 μM BCNU in combination with 7 is also illustrated. For these experiments (FIG. 2) cells were grown in RPMI medium, were incubated with 7 for 2 hr and were then treated with either 40 μM BCNU (A549, HT29 and KB cells) or 80 μM BCNU (KB cells) for 2 hr. The medium was then replaced with fresh medium containing no 7. Cells were kept for 16-18 hr before being replated. […]
(§2) Cells were grown either in Dulbecco's modified Eagle's medium supplemented with 10% fetal bovine serum plus 1.5 mM glutamine and 50 μg/mL gentamycin (HT29) or in RPMI 1640 medium in the presence of 10% fetal bovine serum (HT29, A549 and KB cells). The effect of AGT inactivators on the sensitivity of cells to BCNU was determined using a colony-forming assay.^13 Cells were plated at a density of 10^6 in 25-cm^2 flasks and 24 h later were incubated with different concentrations of AGT inactivator for 2 h before exposure to 40 μM (HT29 cells and A549 cells) or 80 μM (KB cells) of BCNU for 2 h. […]

Test [1] concerns KB nasopharyngeal tumor cells. The experiment in a line: Colony-forming cytotoxicity assay with BCNU, KB cells. The test is classed as cell-based. As to conditions: 40 μM or 80 μM BCNU, 2 hr exposure in folate free medium. Here is the method: as §1, §2
For test [2], the target named is T1, P140K mutant alkyltransferase (Homo sapiens, UniProt P16455, P140K).
T1 construct: His tag
T1 sequence (P16455 1-207 P140K): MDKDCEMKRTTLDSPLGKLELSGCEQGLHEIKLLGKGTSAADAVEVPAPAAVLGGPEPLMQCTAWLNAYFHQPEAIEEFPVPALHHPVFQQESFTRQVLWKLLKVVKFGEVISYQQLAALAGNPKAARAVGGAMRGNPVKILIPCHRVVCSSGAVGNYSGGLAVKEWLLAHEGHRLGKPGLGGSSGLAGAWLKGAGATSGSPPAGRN
As to conditions: cited from earlier work.

Where [3] appears, read: Dulbecco's medium, inactivator present before, during and after BCNU for 16-18 hours.
[4] abbreviates: RPMI medium, inactivator present before and during BCNU only.

Read-outs that look alike come from different tables or passages of the source. Marks after values point to notes of the source that are not given here.

For the compound `Nc1nc(OCc2ccccc2)c2nccnc2n1` [Compound 1, 2-amino-O^4-benzylpteridine], the “Enhancement of HT29 cell killing by BCNU” value in the test on HT29 cells is on record as “capable of enhancing”. The “ED90, concentration required to kill 90% of HT29 cells with BCNU” value (“ED90 … to kill 90% of HT29 cells with BCNU” below) in the test with HT29 cells (setting [3]) is 0.2^b μM.

Consider `Cc1nc2nc(N)nc(OCc3ccccc3)c2nc1C` [Compound 2, 2-amino-O^4-benzyl-6,7-dimethylpteridine], for which the “Enhancement of HT29 cell killing by BCNU” value in the test on HT29 cells is on record as “capable of enhancing”. Also, the “ED90 … to kill 90% of HT29 cells with BCNU” value with HT29 cells (setting [3]) is 0.6^b μM.

Consider `Nc1nc(OCc2ccccc2)c2nc(CO)cnc2n1` [Compound 4, 2-Amino-O^4-benzyl-6-hydroxymethylpteridine], for which the “Enhancement of HT29 cell killing by BCNU” value in the test with HT29 cells is listed as “capable of enhancing”. The “ED90 … to kill 90% of HT29 cells with BCNU” value in the test on HT29 cells (setting [3]) is 0.7^b μM.

With `Nc1nc(OCc2ccccc2)c2nc(C(=O)O)cnc2n1` [Compound 5, 2-Amino-O^4-benzylpteridine-6-carboxylic acid], in the test on HT29 cells, the “Enhancement of HT29 cell killing by BCNU” value is on record as “not effective”. Besides, the “ED90 … to kill 90% of HT29 cells with BCNU” value in the test on HT29 cells (setting [3]) was “inactive”.

On to `Nc1nc(OCc2ccccc2)c2nc(C=O)cnc2n1` [Compound 6, 2-Amino-O^4-benzyl-6-formylpteridine], for which the “Enhancement of HT29 cell killing by BCNU” value with HT29 cells is “capable of enhancing”. Besides, the “ED90 … to kill 90% of HT29 cells with BCNU” value in the test on HT29 cells (setting [4]) is 0.7^c μM.

In the case of `Nc1nc(OCc2ccccc2)c2nc(CNc3ccc(C(=O)N[C@@H](CCC(=O)O)C(=O)O)cc3)cnc2n1` [Compound 7, O^4-Benzylfolic acid], the “Effectiveness as an adjuvant for cell killing by BCNU (FIG. 2)” value in the test with A549 lung tumor cells was “lowest”; in the test with HT29 cells (HT29 cells, 40 μM BCNU, 2 hr exposure in folate free medium), “somewhat greater”; in test [1], “greatest”. In the test with HT29 cells, the “Enhancement of HT29 cell killing by BCNU” value is listed as “capable of enhancing”. In addition, the “ED90 … to kill 90% of HT29 cells with BCNU” value in the test on HT29 cells (RPMI folate-free medium) was 15 µM; in the test with HT29 cells (setting [4]) it was 24^c,d μM.

`Nc1nc(OCc2ccccc2)c2nc[nH]c2n1` [O^6-benzylguanine, reference compound]: the “Inactivation of the P140K mutant alkyltransferase” value in test [2] is on record as “essentially resistant”. For the same compound, the “ED90 … to kill 90% of HT29 cells with BCNU” value in the test with HT29 cells (setting [3]) was 0.4^b μM; with HT29 cells (setting [4]), 0.7^c μM.
